One experiment deals with SCD1. Kind of experiment: Measurement of SCD1 expression in SZ95-SCD1-HiBit cells (HiBiT assay). In kind it is cell-based. The conditions noted are these: Homo sapiens, 48 h; for EC50: SCD1 protein production, luminescence, initial dilution 1:3 in DMSO, read-out: HiBit EC50. An excerpt: Measurement of SCD1 Expression in SZ95-SCD1-HiBit Cells
SCD1 expression levels in SZ95 cells were quantitated using the HiBiT system (Promega) in which a small peptide sequence (SmBiT) with a larger protein (LgBiT) reconstitutes luciferase activity and can generate a luminescent signal used for quantitation. SZ95-SCD1-HiBit cells were generated by editing the SCD1 gene of SZ95 cells resulting in the addition of an 8 amino acid linker sequence (gssggssg, SEQ ID NO:1) followed by an 11-amino acid SmBiT sequence (vsgwrlfkkis, SEQ ID NO:2) at the carboxy-terminus of the SCD1 protein. The gRNA targeting sequence used was […] (SEQ ID NO: 3) and the SCD1 insertion oligonucleotide encoding the SmBiT sequence was:
SZ95-SCD1-HiBit cells were seeded in 384-well cell culture white plates at a density of 3000 cells/30 μl. Water was added to edge wells to avoid evaporation. Cells were incubated in a humidified incubator with 5% CO2 at 37° C. overnight. Tested compounds were diluted at a ratio of 1:3 in DMSO using an Agilent BRAVO Automated Liquid Handling Platform and, after further serial dilutions, added to cells at final concentrations starting from 18 μM. 2-(3-(3-((2-chloro-3-(trifluoromethyl)benzyl)(2,2-diphenylethyl)amino)propoxy)phenyl)acetic acid was used as a reference compound in each plate. Cells in the assay plate were incubated in a humidified incubator with 5% CO2 at 37° C. for 48 h.
The assay plates were removed from the incubator and allowed to equilibrate to room temperature. Nano-Glo® HiBiT Detection Reagent (Promega; a mixture of Nano-Glo HiBiT Detection Buffer, Nano-Glo HiBiT Detection Substrate, and LgBiT protein, according to the manufacturer's instructions) was added into assay plates, at a volume equal to cell culture medium in each well. Plates were placed on an orbital shaker at a speed of 300-600 rpm for 10 min at room temperature, and read on an EnVision Plate Reader using luminescence detection with a 1 second read time.
The assay measures the increase in SCD1 protein production in vitro. Amax refers to the percent EC50 of the tested compound compared to a reference compound, 2-(3-(3-((2-chloro-3-(trifluoromethyl)benzyl)(2,2-diphenylethyl)amino)propoxy)phenyl)acetic acid.

For the next experiment, the system named is SZ95 sebocytes. Kind of experiment: Sentinel Lipid Assay (SLA), desaturation index in SZ95 sebocytes. In kind it is cell-based. The conditions noted are these: Homo sapiens, 72 h; for EC50: desaturation index, lowest dose used 4.6 nM, read-out: SLA EC50. In outline: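 SZ95 human sebocytes on fibronectin-coated plates, dosed 72 h at 37 °C with 1:3 dilutions from 10 μM; lipids extracted with deuterated triglyceride internal standards and quantified by LC-MS/MS (MRM) as 11 sentinel lipids. Desaturation index from elastic-net coefficients, normalized to DMSO; Amax relative to a reference LXR agonist.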

[1] abbreviates: normalized Amax based on the reference compound Amax of 100%, read-out: HiBit Normalized Amax.
Setting [2] is: SZ95-SCD1-HiBit cells, compared to reference compound, read-out: HiBit Amax.
Where [3] appears, read: normalized Amax based on the reference compound Amax of 100%, read-out: SLA Normalized Amax.
The mark [4] stands for this setting: SZ95 cells, compared to reference compound, read-out: SLA Amax.

This is an account of results in patent US11427586B2, “1,2,4-oxadiazole derivatives as liver X receptor agonists” (NOVARTIS AG, priority 2019, dated 2022).

Where two headings read alike, the source gives them in different places.

As for `CC(C)(C)c1ccccc1Oc1ccc(-c2noc(CN3C(=O)N(CCN4CCOCC4)C4(CCN(C5CCC5)CC4)C3=O)n2)cc1C(F)(F)F` [Compound 16, 3-((3-(4-(2-(tert-butyl)phenoxy)-3-(trifluoromethyl)phenyl)-1,2,4-oxadiazol-5-yl)methyl)-8-cyclobutyl-1-(2-morpholinoethyl)-1,3,8-triazaspiro[4.5]decane-2,4-dione], the Emax is 94.8% in the experiment on SCD1 (setting [1]), 90.2% in the experiment on SCD1 (setting [2]), 146% with SZ95 sebocytes (setting [3]) and 140% with SZ95 sebocytes (setting [4]). Moreover, the EC50 was 0.116 nM in the experiment on SCD1 (SZ95-SCD1-HiBit cells) and at most 4.6 nM in the experiment with SZ95 sebocytes (SZ95 cells).
For `CC(C)CS(=O)(=O)c1ccccc1Oc1ccc(-c2noc(CN3C(=O)N(CCN4CCOCC4)C4(CCN(C5CCN(C)C5)CC4)C3=O)n2)cc1C(F)(F)F` (stereo not drawn) [Compound 23, 3-((3-(4-(2-(isobutylsulfonyl)phenoxy)-3-(trifluoromethyl)phenyl)-1,2,4-oxadiazol-5-yl)methyl)-8-(1-methylpyrrolidin-3-yl)-1-(2-morpholinoethyl)-1,3,8-triazaspiro[4.5]decane-2,4-dione], the Emax is 85.1% in the experiment on SCD1 (setting [1]), 80.9% in the experiment with SCD1 (setting [2]), 176% in the experiment with SZ95 sebocytes (setting [3]) and 169% in the experiment with SZ95 sebocytes (setting [4]). For the same compound, the values for the 50% effective concentration (EC50) in the experiment on SCD1 (SZ95-SCD1-HiBit cells) and with SZ95 sebocytes (SZ95 cells) were 3.48 nM and at most 4.6 nM, respectively.
In the case of `CC1(C)C(=O)N(Cc2nc(-c3ccc(OCC(C)(C(F)(F)F)C(F)(F)F)c(C(F)(F)F)c3)no2)C(=O)N1CCN1CCOCC1` [Compound 42, 5,5-dimethyl-1-(2-morpholinoethyl)-3-((3-(4-(3,3,3-trifluoro-2-methyl-2-(trifluoromethyl)propoxy)-3-(trifluoromethyl)phenyl)-1,2,4-oxadiazol-5-yl)methyl)imidazolidine-2,4-dione], the Emax with SCD1 (setting [1]) is 86.1%; in the experiment with SCD1 (setting [2]), 81.9%; in the experiment with SZ95 sebocytes (setting [3]) it was 157%; with SZ95 sebocytes (setting [4]), 150%. For the same compound, the EC50 with SCD1 (SZ95-SCD1-HiBit cells) is 1.52 nM; in the experiment with SZ95 sebocytes (SZ95 cells) it was at most 4.6 nM.
Turning to `CC(C)N(C)S(=O)(=O)c1ccccc1Oc1ccc(-c2noc(CN3C(=O)N(CCC4CCOCC4)C(C)(C)C3=O)n2)cc1C(F)(F)F` [Compound 5, 2-(4-(5-((4,4-dimethyl-2,5-dioxo-3-(2-(tetrahydro-2H-pyran-4-yl)ethyl)imidazolidin-1-yl)methyl)-1,2,4-oxadiazol-3-yl)-2-(trifluoromethyl)phenoxy)-N-isopropyl-N-methylbenzenesulfonamide], the Emax with SCD1 (setting [1]) is 87.7%; in the experiment on SCD1 (setting [2]), 83.4%; in the experiment with SZ95 sebocytes (setting [3]) it was 152%; in the experiment with SZ95 sebocytes (setting [4]), 146%. Moreover, the EC50 is 0.056 nM in the experiment on SCD1 (SZ95-SCD1-HiBit cells) and at most 4.6 nM with SZ95 sebocytes (SZ95 cells).
Consider `CC(C)CS(=O)(=O)c1ccccc1Oc1ccc(-c2noc(CN3C(=O)N(CCN4CCOCC4)C4(CCN(CC5CC5)CC4)C3=O)n2)cc1C(F)(F)F` [Compound 27, 8-(cyclopropylmethyl)-3-((3-(4-(2-(isobutylsulfonyl)phenoxy)-3-(trifluoromethyl)phenyl)-1,2,4-oxadiazol-5-yl)methyl)-1-(2-morpholinoethyl)-1,3,8-triazaspiro[4.5]decane-2,4-dione], for which the Emax in the experiment with SCD1 (setting [1]) is 89.1%; in the experiment with SCD1 (setting [2]) it was 84.7%; with SZ95 sebocytes (setting [3]), 114%; with SZ95 sebocytes (setting [4]), 109%. Further, the EC50 in the experiment on SCD1 (SZ95-SCD1-HiBit cells) was 0.254 nM; in the experiment with SZ95 sebocytes (SZ95 cells) it was at most 4.6 nM.
Consider `CC1(C)C(=O)N(Cc2nc(-c3ccc(Oc4ccccc4S(=O)(=O)CC4CCCOC4)c(C(F)(F)F)c3)no2)C(=O)N1CCN1CCOCC1` (stereo not drawn) [Compound 40, 5,5-dimethyl-1-(2-morpholinoethyl)-3-((3-(4-(2-(((tetrahydro-2H-pyran-3-yl)methyl)sulfonyl)phenoxy)-3-(trifluoromethyl)phenyl)-1,2,4-oxadiazol-5-yl)methyl)imidazolidine-2,4-dione], for which the Emax is 74.7% in the experiment with SCD1 (setting [1]), 71% with SCD1 (setting [2]), 168% in the experiment on SZ95 sebocytes (setting [3]) and 161% in the experiment with SZ95 sebocytes (setting [4]). Also, the concentration for a half-maximal effect (EC50) in the experiment on SCD1 (SZ95-SCD1-HiBit cells) is 7.08 nM; in the experiment on SZ95 sebocytes (SZ95 cells) it was at most 4.6 nM.

For orientation: EC50 means the concentration at which the effect is half-maximal.
